Test results published in BindingDB's records for doi:10.1016/s0960-894x(98)00214-5 (Glaxowellcome Medicines Research Center, 1999).

These molecules were tested against HIV-2 reverse transcriptase (Human immunodeficiency virus 2) (assay: Evaluated for inhibition of HIV-2 reverse transcriptase).

IC50	SMILES
9.6 µM	O=C(CCCC(=O)Nc1ccc(Cl)cc1C(=O)O)Nc1ccc(Cl)cc1C(=O)O [2-({5-[(2-carboxy-4-chlorophenyl)amino]-5-oxopentanoyl}amino)-5-chlorobenzoic acid]
1.8 µM	O=C(CCCCC(=O)Nc1ccc(Cl)cc1C(=O)O)Nc1ccc(Cl)cc1C(=O)O [2-({6-[(2-carboxy-4-chlorophenyl)amino]-6-oxohexanoyl}amino)-5-chlorobenzoic acid]
4.3 µM	COc1ccc(NC(=O)CCCCC(=O)Nc2ccc(OC)cc2C(=O)O)c(C(=O)O)c1 [2-[4-(2-carboxy-4-methoxyphenylcarbamoyl)butylcarboxamido]-5-methoxybenzoic acid]
6.9 µM	CSc1ccc(NC(=O)CCCCC(=O)Nc2ccc(SC)cc2C(=O)O)c(C(=O)O)c1 [2-[4-(2-carboxy-4-methylsulfanylphenylcarbamoyl)butylcarboxamido]-5-methylsulfanylbenzoic acid]
1.7 µM	O=C(CCCCC(=O)Nc1ccc(Br)cc1C(=O)O)Nc1ccc(Br)cc1C(=O)O [5-bromo-2-({6-[(4-bromo-2-carboxyphenyl)amino]-6-oxohexanoyl}amino)benzoic acid]

What follows are molecules tested against HIV-2 reverse transcriptase (Human immunodeficiency virus 2) (assay: Compound was evaluated for inhibition of HIV-2 reverse transcriptase using rC.dG and [3H]-dGTP as substrates at 100 ug/mL).

IC50	SMILES
7.4 µM	O=C(CCCCCCC(=O)Nc1ccc(Br)cc1C(=O)O)Nc1ccc(Br)cc1C(=O)O [5-bromo-2-[6-(4-bromo-2-carboxyphenylcarbamoyl)hexylcarboxamido]benzoic acid]

Molecular target: HIV-2 reverse transcriptase (Human immunodeficiency virus 2)
Test: as above
Remark: another data set of the same source

IC50	SMILES
9 µM	O=C(CCCCC(=O)Nc1ccccc1C(=O)O)Nc1ccccc1C(=O)O [2-({6-[(2-carboxyphenyl)amino]-6-oxohexanoyl}amino)benzoic acid]
9.2 µM	Cc1ccc(NC(=O)CCCCC(=O)Nc2ccc(C)cc2C(=O)O)c(C(=O)O)c1 [2-[4-(2-carboxy-4-methylphenylcarbamoyl)butylcarboxamido]-5-methylbenzoic acid]
32 µM	O=C(CCCCC(=O)Nc1ccc(Br)cc1C(=O)O)Nc1ccc(Br)cc1 [5-Bromo-2-[5-(4-bromo-phenylcarbamoyl)-pentanoylamino]-benzoic acid]
5.5 µM	O=C(Nc1ccc(Br)cc1C(=O)O)c1ccc(C(=O)Nc2ccc(Br)cc2C(=O)O)nc1 [5-bromo-2-{[(5-{[(4-bromo-2-carboxyphenyl)amino]carbonyl}pyridin-2-yl)carbonyl]amino}benzoic acid]
